From patent US9782383B2, “Prophylactic and therapeutic agent for attention-deficit/hyperactivity disorder” (FUJIMOTO CO., LTD., priority 2013, dated 2017)
Where two headings read alike, the source gives them in different places.

Legend:
rats = test: Methamphetamine-seeking behavior in rats
SHRSP/Ezo rats [1] = test: Elevated-plus maze test (impulsivity); format: in vivo, rat
Protocol: (§1) In all the tests described herein, the R configuration (−) substance hydrochloride salt of the compound for use in the invention (hereinafter referred to as “BPAP” in some cases) as the test material and methylphenidate hydrochloride (SIGMA Aldrich) as the comparative drug were dissolved in saline, diluted to a volume of 2 ml/kg before administration, and systemically administered into six-week-old male SHRSP/Ezo rats 30 minutes before behavior tests. Note that BPAP was subcutaneously (s.c.) administered, and methylphenidate was subcutaneously (s.c.) or intraperitoneally (i.p.) administered after the confirmation that there was no difference between the two routes, i.e., the s.c. and i.p. administration.
The anxiety-related behavior was evaluated using an elevated plus maze (open arm: 50 (length)×10 cm (width), enclosed arm: 50 (length)×10 (width)×40 cm (height), height above the floor: 50 cm). The device is constituted by a wall-less open arm and a wall-surrounding enclosed arm crossing each other at right angles at a height of 50 cm above the floor. An animal staying in an open arm is exposed to anxiety in the elevated wall-less open state. […] The elevated-plus maze test reflects an equilibrium state between the approach behavior (curiosity) and the avoidance behavior driven by anxiety in an animal, and thus is generally used for the evaluation of the anxiety level of an animal.
In this experiment, under a 200-lux illuminance condition, a rat was placed in the center of the crossing point of two sets of arms and allowed to enter freely into the maze for a ten-minute test session. The total number of arm entries (total arm entries), the time spent in open arms and the rate of open arm entries were analyzed by a video tracking system for behavioral experiments (LimeLight Actimetrics).
(§2) Data were represented as the means±standard errors. Student's t-test was used for the statistics analysis, and a P value below 5% was considered statistically significant.

SHRSP/Ezo rats [2] = test: Y-maze test (inattentive behavior); format: in vivo, rat
Protocol: as §1
The short-term working memory was evaluated as a spontaneous alternation behavior using a Y-maze (45 (length)×10 (width)×35 cm (height)). The spontaneous alternation is a behavior based on the habit of a rodent preferring to investigate a new arm of the maze rather than returning to one that was previously visited in the Y-maze. In order to select three different arms continuously, it is necessary to remember the previously visited arm. To achieve this, therefore, the short-term working memory is considered indispensable. Because the processes of the short-term working memory are closely related to an appropriate amount of attention toward achievement of the task, the short-term working memory implicates aspects of attention. Thus, the Y-maze test was carried out to evaluate the inattentive behavior in SHRSP/Ezo rats.
The spontaneous alternation was measured according to the method by Sarter et al. (Psychopharmacology (Berl), 94:491-5 (1988)) using the following procedure. Under a 200-lux illuminance condition, each rat was placed in the center of the crossing point of the three arms and allowed to enter the maze arm freely for eight-minute test session, and the sequence of arm entries was recorded. The alteration behavior was defined as the consecutive entry into three arms, i.e. the combination of three different arms, with stepwise combinations in the sequence. The percentage obtained by dividing the spontaneous alternation behavior by the total number of arm entries (total arm entries) minus 2 was determined as the spontaneous alternation behavior rate (alternation rate). For example, assuming that the rat has entered the arms A, B, and C of the Y-maze in the order of ACBABACBAB, the spontaneous alternation behavior is five (ACB, CBA, BAC, ACB, and CBA), the total number of arm entries is ten, and the spontaneous alternation behavior rate is 62.5%. To consider the influence of variations in spontaneous alternation behavior rate among groups during the baseline (drug-untreated) period on the drug efficacy evaluation, the first Y-maze test was carried out three days before the drug efficacy evaluation, and grouping was performed based on the result of spontaneous alternation behavior rates in the 1st Y-maze test.
as §2

[3] = test system: human monoamine transporters (DAT, NET, SERT); test: Affinity for human monoamine transporters; format: binding; details: for order of affinities for human monoamine transporters: highest first
[4] = test system: ADHD model rats or normal rats; test: Locomotor activity in ADHD model rats or normal rats; format: in vivo, rat; details: high dose
SHRSP/Ezo rats [5] = test: Open field test (hyperactivity, inner zone spent time); format: in vivo, rat
Protocol: as §1
The spontaneous locomotor activity in a new environment was evaluated using an open-field apparatus (90 (width)×90 (depth)×40 cm (height), 81 squares).
In this experiment, under a 200-lux illuminance condition, rats were placed in the center of the open field and allowed to move freely in the field for a 60-minute test session, and the horizontal activities (crossings: the number of squares crossed) during the exploration was analyzed by a video tracking system for behavioral experiments (LimeLight Actimetrics, USA).
as §2
Since the spent time in the inner zones (nine compartments in the center) (inner zone spent time) in the open field test is used for the evaluation of the anxiety level, the spent times per time (sec/15 min) and per behavior (sec/count) corrected with the locomotor activity (total crossings) were analyzed as the secondary evaluation in the open field test (FIG. 3). […] SHRSP/Ezo rats show an increase in spent time in the inner zone at the habituated phase during which hyperactivity was observed, indicating a reduction in anxiety level at the habituated phase. […] However, 0.3 mg/kg of BPAP had no effect on the reduction in anxiety level at habituated phase.

[6] = human, in vivo; cited from earlier work
[7] = human, in vivo; cited from earlier work; remark: listed apart in the source
[8] = test system: ADHD model rats or normal rats; details: cited from earlier work; for locomotor activities: increasing doses
[9] = test system: human monoamine transporters (DAT, NET, SERT); details: highest first; Neuropsychopharmacology 27: 699-711 (2002); cited from earlier work
ADHD patients = details: cited from earlier work
[10] = 1 mg/kg as comparative drug (FIG. 1)
[11] = 1 mg/kg as comparative drug (FIG. 2)

## CCCNC(CCC)Cc1cc2ccccc2o1 (single isomer, unassigned; (-)) [BPAP, (−)-1-(benzofuran-2-yl)-2-propylaminopentane]
rats; due to drug-associated cues and methamphetamine-priming
  methamphetamine-seeking behavior: inhibition action
rats; effective dose
  induction of methamphetamine-seeking behavior (dependence liability): did not induce
SHRSP/Ezo rats [1]; s.c., 0.1 mg/kg (P=0.08)
  rate of open arm entries: tendency to reduce
SHRSP/Ezo rats [1]; s.c., 0.1 mg/kg, secondary analysis
  spent time on the open arms per total number of arm entries: significantly reduced
SHRSP/Ezo rats [1]; s.c., 0.01 to 0.3 mg/kg
  extension of the spent time on the open arms: no effect
SHRSP/Ezo rats [2]; s.c., 0.03 mg/kg
  impaired alternation behavior: no improvement action was observed
SHRSP/Ezo rats [2]; s.c., 0.03 to 0.3 mg/kg
  total number of arm entries compared with the first trial (Y1): significantly decreased
SHRSP/Ezo rats [2]; s.c., 0.1 to 0.3 mg/kg
  impaired alternation behavior: significantly improved
[3]; compared with methylphenidate
  relative affinity NET/DAT: substantially equal
  relative affinity for SERT (SERT/DAT): higher
[3]
  order of affinities for human monoamine transporters: DAT>NET>serotonin transporter (SERT)
[4]
  spontaneous locomotor activity: increases
SHRSP/Ezo rats [5]; s.c., 0.3 mg/kg
  locomotor activity at the exploration phase: no action
  locomotor activity at the habituated phase: no action
  reduction in anxiety level (inner zone spent time) at habituated phase: no effect
SHRSP/Ezo rats [5]; s.c., 0.01 to 0.1 mg/kg
  increase in behavior at the habituated phase: significantly inhibited
  inner zone spent time at the habituated phase: significantly reduced
  locomotor activity at the exploration phase: without affecting

## CNCC[C@@H](Oc1ccccc1C)c1ccccc1 [atomoxetine]
[6]
  dry mouth: 13.8%
  headaches: 10.5%
[7]
  abdominal pain: 12.2%
  headache: 22.3%
[8]
  locomotor activities during an exploration period: decreases
  locomotor activities: does not exhibit increases
[9]
  order of affinities for human monoamine transporters: NET>SERT>DAT

## COC(=O)C(c1ccccc1)C1CCCCN1 (stereo not shown) [methylphenidate]
SHRSP/Ezo rats [1]; 1 mg/kg (FIG. 4)
  extension of the spent time on the open arms: did not improve
  increase in the rate of open arm entries: did not improve
  increase in the total number of arm entries (hyperactivity): significant worsened
SHRSP/Ezo rats [1]; i.p., 0.01 to 1 mg/kg
  extension of the open arm spent time: no statistically significant change
  increase in the number of open arm entries: no statistically significant change
[8]
  locomotor activities: dose-dependent increases
SHRSP/Ezo rats [2]; [10]
  reduction in spontaneous alternation behavior rate: recovered
  total number of arm entries: without increasing
SHRSP/Ezo rats [2]; i.p., 1 mg/kg, dose validation
  increase in the total number of arm entries: significant exaltation
  reduction in spontaneous alternation behavior rate: improved
SHRSP/Ezo rats [2]; i.p., 0.01 and 0.1 mg/kg
  increase in the total number of arm entries: no influence
SHRSP/Ezo rats [2]; i.p., 0.01 to 1 mg/kg
  reduction in spontaneous alternation behavior rate: dose-dependently improved
ADHD patients
  share of ADHD patients for whom the drug is ineffective: approximately three out of ten
[3]
  order of affinities for human monoamine transporters: DAT>NET>serotonin transporter (SERT)
SHRSP/Ezo rats [5]; 1 mg/kg (FIG. 3)
  reduction in anxiety level (inner zone spent time) at the habituated phase: no effect
  spent time in the inner zone at the exploration phase: significantly increased
SHRSP/Ezo rats [5]; [11]
  hyperactivity during the exploration phase (0 to 15 minutes): worsened
  hyperactivity during the habituated phase (15 to 60 minutes): worsened
SHRSP/Ezo rats [5]; i.p., 1 mg/kg
  hyperactivity (horizontal ambulatory) in open field test: did not decreased
SHRSP/Ezo rats [5]; i.p., 0.01 and 0.1 mg/kg
  hyperactivity (horizontal ambulatory) in open field test: significantly decreased
SHRSP/Ezo rats [5]; i.p., 3 and 30 mg/kg
  increase in spontaneous ambulatory in open field test: exacerbated
